Experimental data reported in patent US20160083420A1, “DERIVATIVES OF DOLASTATIN 10 AND AURISTATINS” (PIERRE FABRE MEDICAMENT, priority 2013, published 2016).
Square brackets hold non-standard residues; d marks the D form. Peptide text beside a SMILES is read from it. * marks the point of attachment. Dolaproine = CO[C@@H]([C@@H]1CCCN1)[C@@H](C)C(=O)O; Dil = CC[C@H](C)[C@H](NC)[C@@H](CC(=O)O)OC; X5 = CC(C)[C@@H](C(=O)*)N(C)Cc1ccncc1

Tested on: MDA-MB-231 (breast adenocarcinoma—ATCC HTB-26)
Experiment: ATPlite antiproliferative assay on MDA-MB-231 cells
Type: cell-based
Details: Homo sapiens, MDA-MB-231, 72 h, MDA-MB-231, 72 h drug treatment, values in text, read-out: EC50, antiproliferative activity on the MDA-MB-231 cell line
Experimental: A549 (Non Small Cell Lung Cancer—ATCC CCL-185) and MDA-MB-231 (breast adenocarcinoma—ATCC HTB-26) cells were cultured in Minimum Essential Medium Eagle (MEM) with 5% fetal calf serum (FCS) and Dulbecco's modified Eagle Medium (DMEM) with 10% FCS respectively. MCF7 (breast ductal carcinoma—ATCC HTB-22) and SN-12C (kidney carcinoma—ATCC) cells were maintained in RPMI1640 medium (without phenol red for MCF7 cells) containing 10% FCS. All the media were supplemented with fungizone (1.25 μg/mL) and penicillin-streptomycin (100 U/100 μg/mL). Cells were cultured under standard conditions in an incubator at 37° C., 5% CO2 and 95% atmospheric humidity.
Compounds according to the invention were investigated for their antiproliferative activity using an ATPlite proliferation assay (Perkin Elmer, Villebon sur Yvette, France) on a comprehensive panel of 4 cell lines. […] On day 4, cell viability was evaluated by dosing the ATP released by viable cells. The number of viable cells was analyzed in comparison with the number of solvent treated cells. The EC50 values were determined with curve fitting analysis (non linear regression model with a sigmoidal dose response, variable hill slope coefficient), performed with the algorithm provided by the GraphPad Software (GraphPad Software Inc., CA, USA).

**Q.** For `CC[C@H](C)[C@@H]([C@@H](CC(=O)N1CCC[C@H]1[C@H](OC)[C@@H](C)C(=O)N[C@@H](Cc1ccccc1)C(=O)OC)OC)N(C)C(=O)[C@@H](NC(=O)[C@H](C(C)C)N(C)Cc1ccncc1)C(C)C` [Example 3] (X5-V[Dil][Dolaproine]F-OMe), which EC50 is on record?
**A.** 0.41 nM
